The source of these data is patent EP1853270B1, “PHARMACEUTICAL COMPOSITIONS COMPRISING NEP-INHIBITORS, INHIBITORS OF THE ENDOGENOUS ENDOTHELIN PRODUCING SYSTEM AND DIURETICS” (Solvay Pharmaceuticals GmbH, priority 2005, dated 2006).

Each structure is given as a SMILES string.

The subject of the assay is spontaneously hypertensive rat. The assay is described as follows: Telemetric monitoring of blood pressure and heart rate in spontaneously hypertensive rats, compounds given via drinking water. Format: in vivo. To be noted: male SHR; for DBP: group mean change of 24 h mean diastolic blood pressure; for DBP / HR / SBP: day 23 (3 weeks of treatment) minus baseline (day 3), via drinking water, intended 10 mg/kg/day hydrochlorothiazide and/or 100 mg/kg/day daglutril, n=5 per group; for HR: group mean change of 24 h mean heart rate; for SBP: group mean change of 24 h mean systolic blood pressure; for effect on blood pressure: result in words, 3 weeks of treatment via drinking water, difference between groups significant (ANOVA, at least P<0.01). From the text: Male spontaneously hypertensive rats (= SHR, insulin resistant strain from Charles River; aged 6 months) were equipped with telemetry transmitters for continuous monitoring of blood pressure and heart rate (TA11PA-C40. DSI, USA). Telemetry transmitters for continuous monitoring of blood pressure, heart rate and locomotor activity (TA11PA-C40, Data Sciences, USA) were implanted intraabdominally under inhalative halothane anesthesia. A midline abdominal incision was made, and the abdominal aorta was visualized by removal of retroperitoneal fat and connective tissue. A ligature was placed caudal of the renal arteries, the aorta was punctured with a 22G needle, and the catheter was advanced into the aorta. The entry point was sealed with tissue adhesive (Vetbond, 3M, USA), the ligature was removed, and the abdominal incision was closed. Measurements of aortic pressure were taken every 5 minutes (= min) for 4 seconds (= s) each at a sampling rate of 500 Hz, and were corrected for the corresponding ambient pressure (ambient pressure monitor, C11 PR, Data Sciences, USA).
After 3 days of monitoring under baseline (untreated) conditions, animals received daglutril via the drinking water. The intended daily dose was 100 mg/kg/day of daglutril.
In a second experiment, rats were divided into two treatment groups receiving hydrochlorothiazide or hydrochlorothiazide + daglutril. Compounds were administered via the drinking water, and daily drug intake was measured by weighing the water bottles thrice weekly. Intended daily doses were 10 mg/kg/day of hydrochlorothiazide plus, in the combination group, 100 mg/kg/day of daglutril.
Concentrations of hydrochlorothiazide and daglutril in the drinking water were adjusted once per week, in order to ensure the intended daily intake of 10 and 100 mg/kg, respectively.
The blood pressure, heart rate and activity values, sampled in 5 min intervals by the Dataquest™ system, were used for calculation of individual 24 hours (= h) -means. These 24 h means were exported to Excel, and group mean values of systolic blood pressure (= SBP), diastolic blood pressure (= DBP), heart rate (= HR), and locomotor activity (= ACT) were calculated for the daglutril, hydrochlorothiazide and the hydrochlorothiazide + daglutril groups. For the statistical analysis, a baseline value (pre) was calculated from the last day prior to compound application (day 3), and effects of daglutril, hydrochlorothiazide and hydrochlorothiazide + daglutril were calculated in relation to this baseline value (day 23, i.e. after 3 weeks of treatment, minus baseline value). The statistical comparison was done by using univariate ANOVA at an error level of P<0.05.

Consider `NS(=O)(=O)c1cc2c(cc1Cl)NCNS2(=O)=O` [HCTZ, hydrochlorothiazide], for which the DBP is on record as -7.7 mmHg, the HR was -4.5 min⁻¹, the SBP is on record as -11.3 mmHg and the “effect on blood pressure” value is “moderate decrease in blood pressure”.

For `CCOC(=O)[C@H](CCc1ccccc1)CC1(C(=O)N[C@H]2CCc3ccccc3N(CC(=O)O)C2=O)CCCC1` [daglutril], the DBP came out at 2.0 mmHg, the HR is -6.0 min⁻¹, the SBP is -0.3 mmHg and the “effect on blood pressure” value is “no effect on blood pressure”.
